Measurements from patent US20110218103A1, “Fluoroalkyl-substituted 2-amidobenzimidazoles” (BAYER CROPSCIENCE AG, priority 2010, published 2011).

Key:
Assay type in all cases: in vivo
[1] = test system: Zea mays (ZEAMX); assay: Cold stress test on crop plants, spray application in greenhouse, visual damage rating; details: 25 g/ha, mean of three results
Method: Seeds of monocotyledonous and dicotyledonous crop plants were placed in sandy loam in wood-fiber pots, covered with soil and cultivated in a greenhouse under good growth conditions. The test plants were treated at the early leaf stage (BBCH10-BBCH13). To ensure uniform water supply before commencement of stress, the potted plants were supplied with the maximum amount of water immediately beforehand by dam irrigation and, after application, transferred in plastic inserts in order to prevent subsequent, excessively rapid drying. The inventive compounds, formulated in the form of wettable powders (WP), wettable granules (WG), suspension concentrates (SC) or emulsion concentrates (EC), were sprayed onto the green parts of the plants as an aqueous suspension at an equivalent water application rate of 600 l/ha with addition of 0.2% wetting agent (agrotin). Substance application was followed immediately by stress treatment of the plants (cold or drought stress). For cold stress treatment, the plants were kept under the following controlled conditions: “day”: 12 hours with illumination at 8° C. “night”: 12 hours without illumination at 1° C. The duration of the respective stress phases was guided mainly by the state of the untreated, stressed control plants and thus varies from crop to crop. It was ended (by re-irrigating or transfer to a greenhouse with good growth conditions) as soon as irreversible damage is observed on the untreated, stressed control plants. In the case of dicotyledonous crops, for example oilseed rape and soya, the duration of the drought stress phase was between 3 and 5 days, in the case of monocotyledonous crops, for example wheat, barley or corn, between 6 and 10 days. The duration of the cold stress phase varied between 12 and 14 days. The end of the stress phase was followed by an approx. 5-7-day recovery phase, during which the plants were once again kept under good growth conditions in a greenhouse. […] The intensity of damage was first assessed as a percentage (100%=plants have died, 0%=like control plants). […]

[2] = test system: Brassica napus (BRSNS); assay: Drought stress test on crop plants, spray application in greenhouse, visual damage rating; details: mean of three results
Method: Seeds of monocotyledonous and dicotyledonous crop plants were placed in sandy loam in wood-fiber pots, covered with soil and cultivated in a greenhouse under good growth conditions. The test plants were treated at the early leaf stage (BBCH10-BBCH13). To ensure uniform water supply before commencement of stress, the potted plants were supplied with the maximum amount of water immediately beforehand by dam irrigation and, after application, transferred in plastic inserts in order to prevent subsequent, excessively rapid drying. The inventive compounds, formulated in the form of wettable powders (WP), wettable granules (WG), suspension concentrates (SC) or emulsion concentrates (EC), were sprayed onto the green parts of the plants as an aqueous suspension at an equivalent water application rate of 600 l/ha with addition of 0.2% wetting agent (agrotin). Substance application was followed immediately by stress treatment of the plants (cold or drought stress). For cold stress treatment, the plants were kept under the following controlled conditions: Drought stress was induced by gradual drying out under the following conditions: “day”: 14 hours with illumination at 26° C. “night”: 10 hours without illumination at 18° C. The duration of the respective stress phases was guided mainly by the state of the untreated, stressed control plants and thus varies from crop to crop. It was ended (by re-irrigating or transfer to a greenhouse with good growth conditions) as soon as irreversible damage is observed on the untreated, stressed control plants. In the case of dicotyledonous crops, for example oilseed rape and soya, the duration of the drought stress phase was between 3 and 5 days, in the case of monocotyledonous crops, for example wheat, barley or corn, between 6 and 10 days. The duration of the cold stress phase varied between 12 and 14 days. The end of the stress phase was followed by an approx. 5-7-day recovery phase, during which the plants were once again kept under good growth conditions in a greenhouse. In order to rule out any influence of the effects observed by any fungicidal action of the test compounds, it was additionally ensured that the tests proceed without fungal infection and without infection pressure. After the recovery phase had ended, the intensities of damage were rated visually compared to untreated, unstressed controls of the same age (in the case of drought stress) or the same growth stage (in the case of cold stress). The intensity of damage was first assessed as a percentage (100%=plants have died, 0%=like control plants). These values were then used to calculate the efficacy of the test compounds (=percentage reduction in the intensity of damage as a result of substance application) by the following formula: [formula] EF: efficacy (%) DVus: damage value of the untreated, stressed control DVts: damage value of the plants treated with test compound The tables below list mean values in each case from three results of the same test. Effects of selected compounds of the formula (I) under drought stress: BRSNS=Brassica napus

[3] = test system: Zea mays (ZEAMX); assay: as above; details: 25 g/ha, mean of three results
Method: Seeds of monocotyledonous and dicotyledonous crop plants were placed in sandy loam in wood-fiber pots, covered with soil and cultivated in a greenhouse under good growth conditions. The test plants were treated at the early leaf stage (BBCH10-BBCH13). To ensure uniform water supply before commencement of stress, the potted plants were supplied with the maximum amount of water immediately beforehand by dam irrigation and, after application, transferred in plastic inserts in order to prevent subsequent, excessively rapid drying. The inventive compounds, formulated in the form of wettable powders (WP), wettable granules (WG), suspension concentrates (SC) or emulsion concentrates (EC), were sprayed onto the green parts of the plants as an aqueous suspension at an equivalent water application rate of 600 l/ha with addition of 0.2% wetting agent (agrotin). Substance application was followed immediately by stress treatment of the plants (cold or drought stress). For cold stress treatment, the plants were kept under the following controlled conditions: Drought stress was induced by gradual drying out under the following conditions: “day”: 14 hours with illumination at 26° C. “night”: 10 hours without illumination at 18° C. The duration of the respective stress phases was guided mainly by the state of the untreated, stressed control plants and thus varies from crop to crop. It was ended (by re-irrigating or transfer to a greenhouse with good growth conditions) as soon as irreversible damage is observed on the untreated, stressed control plants. In the case of dicotyledonous crops, for example oilseed rape and soya, the duration of the drought stress phase was between 3 and 5 days, in the case of monocotyledonous crops, for example wheat, barley or corn, between 6 and 10 days. The duration of the cold stress phase varied between 12 and 14 days. The end of the stress phase was followed by an approx. 5-7-day recovery phase, during which the plants were once again kept under good growth conditions in a greenhouse. In order to rule out any influence of the effects observed by any fungicidal action of the test compounds, it was additionally ensured that the tests proceed without fungal infection and without infection pressure. After the recovery phase had ended, the intensities of damage were rated visually compared to untreated, unstressed controls of the same age (in the case of drought stress) or the same growth stage (in the case of cold stress). The intensity of damage was first assessed as a percentage (100%=plants have died, 0%=like control plants). These values were then used to calculate the efficacy of the test compounds (=percentage reduction in the intensity of damage as a result of substance application) by the following formula: [formula] EF: efficacy (%) DVus: damage value of the untreated, stressed control DVts: damage value of the plants treated with test compound The tables below list mean values in each case from three results of the same test. Effects of selected compounds of the formula (I) under drought stress: ZEAMX=Zea mays

[4] = test system: Hordeum vulgare (HORVS); assay: as above; details: 25 g/ha, mean of three results
Method: Seeds of monocotyledonous and dicotyledonous crop plants were placed in sandy loam in wood-fiber pots, covered with soil and cultivated in a greenhouse under good growth conditions. The test plants were treated at the early leaf stage (BBCH10-BBCH13). To ensure uniform water supply before commencement of stress, the potted plants were supplied with the maximum amount of water immediately beforehand by dam irrigation and, after application, transferred in plastic inserts in order to prevent subsequent, excessively rapid drying. The inventive compounds, formulated in the form of wettable powders (WP), wettable granules (WG), suspension concentrates (SC) or emulsion concentrates (EC), were sprayed onto the green parts of the plants as an aqueous suspension at an equivalent water application rate of 600 l/ha with addition of 0.2% wetting agent (agrotin). Substance application was followed immediately by stress treatment of the plants (cold or drought stress). For cold stress treatment, the plants were kept under the following controlled conditions: Drought stress was induced by gradual drying out under the following conditions: “day”: 14 hours with illumination at 26° C. “night”: 10 hours without illumination at 18° C. The duration of the respective stress phases was guided mainly by the state of the untreated, stressed control plants and thus varies from crop to crop. It was ended (by re-irrigating or transfer to a greenhouse with good growth conditions) as soon as irreversible damage is observed on the untreated, stressed control plants. In the case of dicotyledonous crops, for example oilseed rape and soya, the duration of the drought stress phase was between 3 and 5 days, in the case of monocotyledonous crops, for example wheat, barley or corn, between 6 and 10 days. The duration of the cold stress phase varied between 12 and 14 days. The end of the stress phase was followed by an approx. 5-7-day recovery phase, during which the plants were once again kept under good growth conditions in a greenhouse. In order to rule out any influence of the effects observed by any fungicidal action of the test compounds, it was additionally ensured that the tests proceed without fungal infection and without infection pressure. After the recovery phase had ended, the intensities of damage were rated visually compared to untreated, unstressed controls of the same age (in the case of drought stress) or the same growth stage (in the case of cold stress). The intensity of damage was first assessed as a percentage (100%=plants have died, 0%=like control plants). These values were then used to calculate the efficacy of the test compounds (=percentage reduction in the intensity of damage as a result of substance application) by the following formula: [formula] EF: efficacy (%) DVus: damage value of the untreated, stressed control DVts: damage value of the plants treated with test compound The tables below list mean values in each case from three results of the same test. Effects of selected compounds of the formula (I) under drought stress: HORVS=Hordeum vulgare

[5] = test system: Triticum aestivum (TRZAS); assay: as above; details: 25 g/ha, mean of three results
Method: Seeds of monocotyledonous and dicotyledonous crop plants were placed in sandy loam in wood-fiber pots, covered with soil and cultivated in a greenhouse under good growth conditions. The test plants were treated at the early leaf stage (BBCH10-BBCH13). To ensure uniform water supply before commencement of stress, the potted plants were supplied with the maximum amount of water immediately beforehand by dam irrigation and, after application, transferred in plastic inserts in order to prevent subsequent, excessively rapid drying. The inventive compounds, formulated in the form of wettable powders (WP), wettable granules (WG), suspension concentrates (SC) or emulsion concentrates (EC), were sprayed onto the green parts of the plants as an aqueous suspension at an equivalent water application rate of 600 l/ha with addition of 0.2% wetting agent (agrotin). Substance application was followed immediately by stress treatment of the plants (cold or drought stress). For cold stress treatment, the plants were kept under the following controlled conditions: Drought stress was induced by gradual drying out under the following conditions: “day”: 14 hours with illumination at 26° C. “night”: 10 hours without illumination at 18° C. The duration of the respective stress phases was guided mainly by the state of the untreated, stressed control plants and thus varies from crop to crop. It was ended (by re-irrigating or transfer to a greenhouse with good growth conditions) as soon as irreversible damage is observed on the untreated, stressed control plants. In the case of dicotyledonous crops, for example oilseed rape and soya, the duration of the drought stress phase was between 3 and 5 days, in the case of monocotyledonous crops, for example wheat, barley or corn, between 6 and 10 days. The duration of the cold stress phase varied between 12 and 14 days. The end of the stress phase was followed by an approx. 5-7-day recovery phase, during which the plants were once again kept under good growth conditions in a greenhouse. In order to rule out any influence of the effects observed by any fungicidal action of the test compounds, it was additionally ensured that the tests proceed without fungal infection and without infection pressure. After the recovery phase had ended, the intensities of damage were rated visually compared to untreated, unstressed controls of the same age (in the case of drought stress) or the same growth stage (in the case of cold stress). The intensity of damage was first assessed as a percentage (100%=plants have died, 0%=like control plants). These values were then used to calculate the efficacy of the test compounds (=percentage reduction in the intensity of damage as a result of substance application) by the following formula: [formula] EF: efficacy (%) DVus: damage value of the untreated, stressed control DVts: damage value of the plants treated with test compound The tables below list mean values in each case from three results of the same test. Effects of selected compounds of the formula (I) under drought stress: TRZAS=Triticum aestivum

NC(=O)c1cccc2[nH]c(C(F)(F)F)nc12 [1-14]
>5%: EF (ZEAMX), efficacy = percentage reduction in the intensity of damage [1] | EF (BRSNS), efficacy = percentage reduction in the intensity of damage ([2]; 50 g/ha) | EF (ZEAMX), efficacy = percentage reduction in the intensity of damage [3]

NC(=O)c1cc(Cl)cc2[nH]c(C(F)F)nc12 [2-7]
>5%: EF (HORVS), efficacy = percentage reduction in the intensity of damage [4] | EF (BRSNS), efficacy = percentage reduction in the intensity of damage ([2]; 25 g/ha) | EF (TRZAS), efficacy = percentage reduction in the intensity of damage [5]

Cc1cc(C(N)=O)c2nc(C(F)F)[nH]c2c1 [4-7]
>5%: EF (HORVS), efficacy = percentage reduction in the intensity of damage [4] | EF (BRSNS), efficacy = percentage reduction in the intensity of damage ([2]; 25 g/ha) | EF (TRZAS), efficacy = percentage reduction in the intensity of damage [5]
